Experimental data as given in patent publication US7541352B2, “Compounds for the treatment of hepatitis C” (Bristol-Myers Squibb Company, priority 2007, dated 2009).
Like-named read-outs stand apart in the source and are kept apart here.

Experiments:
[1] = biological target: T1, HCV NS5B RdRp genotype 1b (Hepatitis C virus genotype 1b, UniProt Q9WMX2); assay: Modified HCV NS5B RdRp enzyme assay (preincubation protocol); type: biochemical
T1 construct: The protein was expressed with an 18 amino acid C-terminal truncation to enhance the solubility; made in house; host or cells: E. coli BL21(DE3), pET21a
T1 sequence (Q9WMX2 2420-2992): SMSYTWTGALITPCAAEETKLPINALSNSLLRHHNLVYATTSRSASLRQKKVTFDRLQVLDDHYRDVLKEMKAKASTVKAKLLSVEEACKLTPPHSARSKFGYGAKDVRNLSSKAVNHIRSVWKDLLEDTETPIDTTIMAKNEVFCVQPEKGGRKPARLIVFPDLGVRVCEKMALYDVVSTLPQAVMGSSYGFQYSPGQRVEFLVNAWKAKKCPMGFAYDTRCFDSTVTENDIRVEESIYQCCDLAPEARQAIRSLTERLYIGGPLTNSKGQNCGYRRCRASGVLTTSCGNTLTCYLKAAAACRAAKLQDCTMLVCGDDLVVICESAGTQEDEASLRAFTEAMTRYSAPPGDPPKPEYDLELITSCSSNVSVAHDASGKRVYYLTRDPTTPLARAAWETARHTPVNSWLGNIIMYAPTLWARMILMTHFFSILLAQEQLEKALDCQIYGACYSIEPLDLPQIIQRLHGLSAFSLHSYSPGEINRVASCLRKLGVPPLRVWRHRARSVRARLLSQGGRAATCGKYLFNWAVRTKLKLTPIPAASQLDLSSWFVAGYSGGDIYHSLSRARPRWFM
Method: HCV NS5B RdRp cloning, expression, and purification. The cDNA encoding the NS5B protein of HCV, genotype 1b, was cloned into the pET21a expression vector. The protein was expressed with an 18 amino acid C-terminal truncation to enhance the solubility. The E. coli competent cell line BL21(DE3) was used for expression of the protein. Cultures were grown at 37° C. for ˜4 hours until the cultures reached an optical density of 2.0 at 600 nm. The cultures were cooled to 20° C. and induced with 1 mM IPTG. Fresh ampicillin was added to a final concentration of 50 μg/ml and the cells were grown overnight at 20° C.
Cell pellets (3 L) were lysed for purification to yield 15-24 mgs of purified NS5B. The lysis buffer consisted of 20 mM Tris-HCl, pH 7.4, 500 mM NaCl, 0.5% triton X-100, 1 mM DTT, 1 mM EDTA, 20% glycerol, 0.5 mg/ml lysozyme, 10 mM MgCl2, 15 ug/ml deoxyribonuclease I, and Complete TM protease inhibitor tablets (Roche). After addition of the lysis buffer, frozen cell pellets were resuspended using a tissue homogenizer. To reduce the viscosity of the sample, aliquots of the lysate were sonicated on ice using a microtip attached to a Branson sonicator. The sonicated lysate was centrifuged at 100,000×g for 1 hr at 4° C. and filtered through a 0.2 μm filter unit (Corning).
The protein was purified using two sequential chromatography steps: Heparin sepharose CL-6B and polyu sepharose 4B (Pharmacia). The chromatography buffers were identical to the lysis buffer but contained no lysozyme, deoxyribonuclease I, MgCl2 or protease inhibitor and the NaCl concentration of the buffer was adjusted according to the requirements for charging the protein onto the column. Each column was eluted with a NaCl gradient which varied in length from 5-50 column volumes depending on the column type. After the final chromatography step, the resulting purity of the enzyme is >90% based on SDS-PAGE analysis. The enzyme was aliquoted and stored at −80° C.
Standard HCV NS5B RdRp enzyme assay. HCV RdRp genotype 1b assays were run in a final volume of 60 μl in 96 well plates (Corning 3600). The assay buffer is composed of 20 mM Hepes, pH 7.5, 2.5 mM KCl, 2.5 mM MgCl2, 1 mM DTT, 1.6 U RNAse inhibitor (Promega N2515), 0.01 mg/ml BSA (Sigma B6917), and 2% glycerol. All compounds were serially diluted (3-fold) in DMSO and diluted further in water such that the final concentration of DMSO in the assay was 2%. HCV RdRp genotype 1b enzyme was used at a final concentration of 28 nM. A polyA template was used at 6 nM, and a biotinylated oligo-dT 12 primer was used at 180 nM final concentration. Template was obtained commercially (Amersham 27-4110). Biotinylated primer was prepared by Sigma Genosys. 3H-UTP was used at 0.6 μCi (0.29 μM total UTP). Reactions were initiated by the addition of enzyme, incubated at 30° C. for 60 min, and stopped by adding 25 μl of 50 mM EDTA containing SPA beads (4 μg/μl, Amersham RPNQ 0007). Plates were read on a Packard Top Count NXT after >1 hr incubation at room temperature.
Modified HCV NS5B RdRp enzyme assay. A modified enzyme assay was performed essentially as described for the standard enzyme assay except for the following: The biotinylated oligo dT12 primer was precaptured on streptavidin-coated SPA beads by mixing primer and beads in assay buffer and incubating at room temperature for one hour. Unbound primer was removed after centrifugation. The primer-bound beads were resuspended in 20 mM Hepes buffer, pH 7.5 and used in the assay at final concentrations of 20 nM primer and 0.67 μg/μl beads. Order of addition in the assay: enzyme (1.75 nM) was added to diluted compound followed by the addition of a mixture of template (0.36 nM), 3H-UTP (0.6 μCi, 0.29 μM), and primer-bound beads, to initiate the reaction; concentrations given are final. Reactions were allowed to proceed for 4 hours at 30° C.
IC50 values for compounds were determined using seven different [I]. […]

HCV replicon cells = assay: HCV replicon FRET assay; type: cell-based
Method: FRET Assay Preparation. The HCV FRET screening assay was performed in 96-well cell culture plates. The FRET peptide (Anaspec, Inc.) (Taliani et al., Anal. Biochem. 1996, 240, 60-67) contains a fluorescence donor, EDANS, near one end of the peptide and an acceptor, DABCYL, near the other end. The fluorescence of the peptide is quenched by […] resonance energy transfer (RET) between the donor and the acceptor, but as the NS3 protease cleaves the peptide the products are released from RET quenching and the fluorescence of the donor becomes apparent. The assay reagent was made as follows: 5× cell Luciferase cell culture lysis reagent from Promega (#E153A) diluted to 1× with dH2O, NaCl added to 150 mM final, the FRET peptide diluted to 20 μM final from a 2 mM stock.
To prepare plates, HCV replicon cells, with or without a Renilla luciferase reporter gene, were trypsinized and plated in a 96-well plate with titrated test compounds added in columns 3 through 12; columns 1 and 2 contained a control compound (HCV control inhibitor), and the bottom row contained cells with DMSO only. The plates were then placed in a CO2 incubator at 37° C.
Assays. Subsequent to addition of the test compounds described above (FRET Assay Preparation), at various times the plate was removed and Alamar blue solution (Trek Diagnostics, #00-100) was added to measure cellular toxicity. After reading in a Cytoflour 4000 instrument (PE Biosystems), plates were rinsed with PBS and then used for FRET assay by the addition of 30 ul of the FRET peptide assay reagent described above (FRET Assay Preparation) per well. The plate was then placed into the Cytoflour 4000 instrument which had been set to 340 excite/490 emission, automatic mode for up to 20 cycles and the plate read in a kinetic mode. Typically, the signal to noise using an endpoint analysis after the reads was at least three-fold. Alternatively, after Alamar blue reading, plates were rinsed with PBS, then used for luciferase assay using the Promega Dual-Glo Luciferase Assay System or the Promega EnduRen Live Cell Substrate assay.
Compound analysis was performed by quantification of the relative HCV replicon inhibition and the relative cytotoxicity values. To calculate cytoxicity values, the average Alamar Blue fluorescence signals from the control wells were set as 100% non-toxic. The individual signals in each of the compound test wells were then divided by the average control signal and multiplied by 100% to determine […]. To calculate the HCV replicon inhibition values, an average background value was obtained from the two wells containing the highest amount of HCV control inhibitor at the end of the assay period. These numbers were similar to those obtained from naïve Huh-7 cells. The background numbers were then subtracted from the average signal obtained from the control wells and this number was used as 100% activity. The individual signals in each of the compound test wells were then divided by the averaged control values after background subtraction and multiplied by 100% to determine percent activity. EC50 values were calculated as the concentration which caused a 50% reduction in FRET or luciferase activity. The two numbers generated for the compound plate, percent cytoxicity and percent activity, were used to determine compounds of interest for further analysis.

[2] = HCV NS5B RdRp, determined using the preincubation protocol, read-out: IC50
[3] = Hepatitis C virus, HCV replicon cells, determined using the FRET assay, read-out: EC50

COc1ccc2c(c1)[C@@H]1C[C@]1(NC(=O)C(=O)N(C)C)Cn1c-2c(C2CCCCC2)c2ccc(C(=O)NS(=O)(=O)N(C)C)cc21 [drawing 35]
IC50 [1, 2]: 1 to 500 nM | EC50 (HCV replicon cells; [3]): 1 to 500 nM

Cc1ccc2c(c1)C1CC1(NC(=O)C(=O)N(C)C)Cn1c-2c(C2CCCCC2)c2ccc(C(=O)NS(=O)(=O)C3CCC3)cc21 (stereo not drawn)
IC50 [1, 2]: 1 to 500 nM | EC50 (HCV replicon cells; [3]): 1 to 500 nM

COc1ccc2c(c1)[C@@H]1C[C@]1(N(C)C(=O)C(=O)N1CCOCC1c1ccccc1)Cn1c-2c(C2CCCCC2)c2ccc(C(=O)NS(=O)(=O)N(C)C)cc21 (stereo partly drawn)
IC50 [1, 2]: 1 to 500 nM | EC50 (HCV replicon cells; [3]): 1 to 500 nM

COc1ccc2c(c1)C1CC1(NC(=O)C(=O)N1C3CCC1CN(C)C3)Cn1c-2c(C2CCCCC2)c2ccc(C(=O)NS(=O)(=O)N(C)C)cc21 (stereo not drawn)
IC50 [1]: 1 to 500 nM | EC50 (HCV replicon cells; Hepatitis C virus): 1 to 500 nM

COc1ccc2c(c1)C1CC1(NC(=O)C(=O)N1CCOCC1)Cn1c-2c(C2CCCCC2)c2ccc(C(=O)NS(=O)(=O)N(C)C)cc21 (stereo not drawn)
IC50 [1, 2]: 1 to 500 nM | EC50 (HCV replicon cells; [3]): 1 to 500 nM

COc1ccc2c(c1)C1CC1(NC(=O)C(=O)N1CCCC1)Cn1c-2c(C2CCCCC2)c2ccc(C(=O)NS(=O)(=O)N(C)C)cc21 (stereo not drawn) [drawing 32]
IC50 [1, 2]: 1 to 500 nM | EC50 (HCV replicon cells; [3]): 1 to 500 nM

COc1ccc2c(c1)C1CC1(NC(=O)C(=O)N(C)C)Cn1c-2c(C2CCCCC2)c2ccc(C(=O)NS(=O)(=O)CC(C)(C)C)cc21 (stereo not drawn)
IC50 [1, 2]: 1 to 500 nM | EC50 (HCV replicon cells; [3]): 1 to 500 nM

COc1ccc2c(c1)[C@H]1C[C@@]1(NC(=O)C(=O)N(C)C)Cn1c-2c(C2CCCCC2)c2ccc(C(=O)NS(=O)(=O)N(C)C)cc21 [drawing 42]
IC50 [1, 2]: 1 to 500 nM | EC50 (HCV replicon cells; [3]): 1 to 500 nM

COc1ccc2c(c1)C1CC1(NC(=O)C(=O)N(C)C)Cn1c-2c(C2CCCCC2)c2ccc(C(=O)NS(=O)(=O)N(C)C)cc21 (stereo not drawn)
IC50 [1, 2]: 1 to 500 nM | EC50 (HCV replicon cells; [3]): 1 to 500 nM

COc1ccc2c(c1)C1CC1(NC(=O)N1CC3CN(Cc4ccccc4)CC(C1)N3Cc1ccccc1)Cn1c-2c(C2CCCCC2)c2ccc(C(=O)NS(=O)(=O)N(C)C)cc21 (stereo not drawn)
IC50 [1]: 1 to 500 nM

COc1ccc2c(c1)[C@@H]1C[C@]1(NC(=O)C(=O)N1CCOCC1c1ccccc1)Cn1c-2c(C2CCCCC2)c2ccc(C(=O)NS(=O)(=O)N(C)C)cc21 (stereo partly drawn)
IC50 [1, 2]: 1 to 500 nM | EC50 (HCV replicon cells; [3]): 1 to 500 nM

COc1ccc2c(c1)C1CC1(NS(=O)(=O)C1CCN(C(=O)OCc3ccccc3)CC1)Cn1c-2c(C2CCCCC2)c2ccc(C(=O)NS(=O)(=O)N(C)C)cc21 (stereo not drawn)
IC50 [1, 2]: 1 to 500 nM | EC50 (HCV replicon cells; [3]): 1 to 500 nM

COc1ccc2c(c1)CC(NC(=O)C(=O)N(C)C)Cn1c-2c(C2CCCCC2)c2ccc(C(=O)NS(=O)(=O)N(C)C)cc21 (stereo not drawn)
IC50 [1, 2]: 1 to 500 nM | EC50 (HCV replicon cells; [3]): 1 to 500 nM

COC(=O)C(=O)NC12CC1c1cc(OC)ccc1-c1c(C3CCCCC3)c3ccc(C(=O)NS(=O)(=O)N(C)C)cc3n1C2 (stereo not drawn)
IC50 [1, 2]: 1 to 500 nM | EC50 (HCV replicon cells; [3]): 1 to 500 nM

COc1ccc2c(c1)C1CC1(NC(=O)C(=O)N1CCN(C)CC1)Cn1c-2c(C2CCCCC2)c2ccc(C(=O)NS(=O)(=O)N(C)C)cc21 (stereo not drawn)
IC50 [1, 2]: 1 to 500 nM | EC50 (HCV replicon cells; [3]): 1 to 500 nM

COc1ccc(S(=O)(=O)NC23CC2c2cc(OC)ccc2-c2c(C4CCCCC4)c4ccc(C(=O)NS(=O)(=O)N(C)C)cc4n2C3)c(OC)c1 (stereo not drawn)
IC50 [1, 2]: 1 to 500 nM | EC50 (HCV replicon cells; [3]): 1 to 500 nM

COc1ccc2c(c1)C1CC1(NC(=O)C(=O)N1CCCN(C)CC1)Cn1c-2c(C2CCCCC2)c2ccc(C(=O)NS(=O)(=O)N(C)C)cc21 (stereo not drawn)
IC50 [1, 2]: 1 to 500 nM | EC50 (HCV replicon cells; [3]): 1 to 500 nM

COc1ccc2c(c1)C1CC1(NC(=O)C(=O)N1CCCC1)Cn1c-2c(C2CCCCC2)c2ccc(C(=O)NS(=O)(=O)N(C)C)cc21 (stereo not drawn) [drawing 39]
IC50 [1, 2]: 1 to 500 nM | EC50 (HCV replicon cells; HCV replicon cells, determined using the FRET assay, read-out: EC50): 1 to 500 nM

COc1ccc2c(c1)[C@@H]1C[C@]1(NC(=O)N1C3CCC1CN(C)C3)Cn1c-2c(C2CCCCC2)c2ccc(C(=O)NS(=O)(=O)N(C)C)cc21
IC50 [1]: 1 to 500 nM | EC50 (HCV replicon cells; Hepatitis C virus): 1 to 500 nM

COc1ccc2c(c1)C1CC1(NC(=O)C(=O)N1CCN3CCC1CC3)Cn1c-2c(C2CCCCC2)c2ccc(C(=O)NS(=O)(=O)N(C)C)cc21 (stereo not drawn)
IC50 [1, 2]: 1 to 500 nM | EC50 (HCV replicon cells; [3]): 1 to 500 nM

COc1ccc2c(c1)[C@@H]1C[C@]1(NC(=O)C(=O)N1C[C@@H](C)O[C@@H](C)C1)Cn1c-2c(C2CCCCC2)c2ccc(C(=O)NS(=O)(=O)N(C)C)cc21 [drawing 34]
IC50 [1, 2]: 1 to 500 nM | EC50 (HCV replicon cells; [3]): 1 to 500 nM

COc1ccc2c(c1)[C@H]1C[C@@]1(NC(=O)C(=O)N(C)C)Cn1c-2c(C2CCCCC2)c2ccc(C(=O)NS(=O)(=O)N(C)C)cc21 [drawing 37]
IC50 [1, 2]: 1 to 500 nM

COc1ccc2c(c1)C1CC1(NC(=O)C(=O)N1CC(OC)C1)Cn1c-2c(C2CCCCC2)c2ccc(C(=O)NS(=O)(=O)N(C)C)cc21 (stereo not drawn)
IC50 [1, 2]: 1 to 500 nM | EC50 (HCV replicon cells; [3]): 1 to 500 nM

COc1ccc2c(c1)C1C[C@@]1(NC(=O)C(=O)N(C)C)Cn1c-2c(C2CCCCC2)c2ccc(C(=O)NS(=O)(=O)N(C)C)cc21 (stereo partly drawn) [drawing 37]
EC50 (HCV replicon cells; [3]): 1 to 500 nM
